# Patent publication US9364448B2, “Nitisinone for treatment of oculocutaneous/ocular albinism and for increasing pigmentation” (The United States of America, as represented by the …, priority 2010, dated 2016)
# Experiments:
# Assay type in all cases: cell-based
# H420R mouse tyrosinase = target: T1, H420R mouse tyrosinase (Mus musculus, UniProt P11344, H420R); assay: Tyrosinase protein stability in CHO cells with cycloheximide, H420R; details: 1 mM tyrosine, later time points (9 and 24 hours)
# T1 construct: expressed in transfected cells; host or cells: CHO cells, pcDNA3.1
# T1 sequence (P11344 19-533 H420R): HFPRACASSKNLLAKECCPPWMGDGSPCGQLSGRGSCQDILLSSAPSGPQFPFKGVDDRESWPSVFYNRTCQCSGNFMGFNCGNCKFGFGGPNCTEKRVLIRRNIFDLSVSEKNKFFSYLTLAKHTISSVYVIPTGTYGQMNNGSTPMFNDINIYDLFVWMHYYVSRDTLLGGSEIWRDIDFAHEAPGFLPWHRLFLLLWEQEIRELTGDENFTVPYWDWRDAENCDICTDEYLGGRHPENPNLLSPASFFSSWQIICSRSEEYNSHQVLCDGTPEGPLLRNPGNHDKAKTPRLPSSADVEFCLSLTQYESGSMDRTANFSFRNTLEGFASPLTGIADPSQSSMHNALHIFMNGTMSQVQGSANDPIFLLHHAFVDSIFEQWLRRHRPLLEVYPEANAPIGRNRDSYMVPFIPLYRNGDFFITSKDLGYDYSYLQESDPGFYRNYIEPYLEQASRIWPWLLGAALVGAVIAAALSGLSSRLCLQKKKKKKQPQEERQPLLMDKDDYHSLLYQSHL
# Procedure: In Vitro Expression and Enzyme Activity. The expression construct of mouse Tyr was a kind gift of Dr. C. Olivares from the School of Medicine of the University of Murcia (Spain). This construct was prepared in the pcDNA3.1 expression vector (Invitrogen, Carlsbad, Calif.) using EcoRI/XbaI restriction sites and based on the mouse Tyr clone obtained as described previously in C. Olivares, et al., Biochem. J., 354:131 (2001). Constructs of tyrosinase gene mutant variants, with changes corresponding to missense mutations R77L and H420R in the mouse tyrosinase protein sequence, were created using standard methodologies (Mutagenex Inc., Piscataway, N.J.). […]
# Chinese hamster ovary cells (CHO) (generous gift from Dr. J. T. Wroblewski from the Pharmacology Department, Georgetown University Medical Center, Washington D.C.) were grown at a temperature of about 37° C. in DMEM media, in the presence of 10% fetal bovine serum, 1% penicillin and 4.5 g […] per 0.5 liter of media. […] The total protein content in protein lysates was determined spectrophotometrically as a 280/260 ratio. Protein expression was analyzed by Western blotting, and GAPDH was used as an internal loading control. For the analysis, Western blots were scanned, intensities of protein bands were determined, and ratios of band intensities for the wild type or mutant variants, to that of GAPDH were calculated. […]
# [1] = system: wild-type human melanocytes; assay: Human melanocyte melanin assay, wild-type (control); details: 1 mM tyrosine, about one week
# Procedure: (§1) Human melanocyte culture and melanin assay. Human melanocytes were established from skin punch biopsies. Skin specimens were washed with PBS then treated with 0.25% trypsin-EDTA (Gibco 25200) for about 2 hours followed by vigorous vortexing to separate the epidermis. The epidermis was sectioned and attached to scored patches on the bottom of a 6-well polystyrene culture dish before being covered with melanocyte media. About 1000 ml of melanocyte media was made from 950 ml Ham's F10 (Gibco 1550), 25 ml FBS, 5 ug bFGF (Sigma F0291), 10 μg endothelin (Sigma, E7764, Sigma Chemicals, St. Louis, Mo.), 7.5 mg IBMX (Sigma 17018), 30 μg cholera toxin (Sigma C8052), 3.3 μg TPA (Sigma P8139), 10 ml PenStrepGlutamine, 1 ml fungizone and the media was 0.22 μm filtered.
# (§2) Melanocytes were plated on 6 well dishes and grown to confluency. Melanin assays were run in triplicate by supplementing three wells per plate with 1 mM tyrosine (Sigma T8566), using the remaining 3 wells as untreated controls. Treatment time was approximately one week. […] The OD475 was measured and converted to melanin content via a standard curve using synthetic melanin (Sigma M0418). The data were normalized to protein content, determined using a bicinchoninic (BCA) assay kit (BioRad, Inc., Hercules, Calif.). Differences between treated and untreated measurements were analyzed with a two-tailed unpaired t-test. […]
# [2] = system: melanocytes from an OCA-1A patient; assay: Human melanocyte melanin assay, OCA-1A patient; details: presence or absence of 1 mM tyrosine
# Procedure: as §1, §2
smiles,measurement,setting,value
N[C@@H](Cc1ccc(O)cc1)C(=O)O [tyrosine],Stability of H420R mutant tyrosinase protein relative to GAPDH,H420R mouse tyrosinase,improved the stability
same,Melanin production,[1],produce significant melanin
same,Pigment production,[2],did not produce detectable pigment
